From patent US20240317735A1, “HYDROISOQUINOLINE OR HYDRONAPHTHYRIDINE COMPOUNDS FOR THE TREATMENT OF AUTOIMMUNE DISEASE” (Hoffmann-La Roche Inc., priority 2020, published 2024) come the findings set out here.

The target of this assay is T1, TLR9 (Homo sapiens, UniProt Q9NR96).
T1 sequence (Q9NR96 26-1032): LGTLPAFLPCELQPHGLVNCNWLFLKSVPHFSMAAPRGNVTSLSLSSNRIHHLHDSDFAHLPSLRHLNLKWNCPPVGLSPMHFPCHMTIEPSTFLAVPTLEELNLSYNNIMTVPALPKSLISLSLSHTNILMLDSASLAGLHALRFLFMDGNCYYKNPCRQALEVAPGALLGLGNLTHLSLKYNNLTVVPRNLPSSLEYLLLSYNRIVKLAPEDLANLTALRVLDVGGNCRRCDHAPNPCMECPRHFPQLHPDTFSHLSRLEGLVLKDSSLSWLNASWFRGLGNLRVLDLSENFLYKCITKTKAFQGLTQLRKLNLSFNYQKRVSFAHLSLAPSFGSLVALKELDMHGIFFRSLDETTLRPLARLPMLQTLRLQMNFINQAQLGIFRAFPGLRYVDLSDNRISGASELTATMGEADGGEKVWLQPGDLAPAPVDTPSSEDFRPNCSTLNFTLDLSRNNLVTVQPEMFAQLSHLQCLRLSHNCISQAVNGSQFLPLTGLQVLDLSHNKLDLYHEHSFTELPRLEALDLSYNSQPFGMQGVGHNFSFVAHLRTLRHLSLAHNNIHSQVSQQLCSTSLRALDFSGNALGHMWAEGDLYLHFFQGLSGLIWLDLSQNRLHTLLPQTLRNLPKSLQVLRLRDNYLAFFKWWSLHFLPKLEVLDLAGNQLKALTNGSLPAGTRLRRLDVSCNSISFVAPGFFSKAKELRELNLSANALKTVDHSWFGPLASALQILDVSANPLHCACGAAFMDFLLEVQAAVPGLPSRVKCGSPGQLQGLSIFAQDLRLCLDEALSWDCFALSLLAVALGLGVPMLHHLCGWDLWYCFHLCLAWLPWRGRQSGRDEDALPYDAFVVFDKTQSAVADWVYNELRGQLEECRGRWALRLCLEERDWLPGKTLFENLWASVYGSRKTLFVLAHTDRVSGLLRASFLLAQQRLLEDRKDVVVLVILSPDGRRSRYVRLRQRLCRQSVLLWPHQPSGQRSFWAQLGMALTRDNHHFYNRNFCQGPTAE
Description: HEK293-Blue-hTLR-9 cells assay (SEAP reporter, ODN2006 stimulation). The assay is classed as cell-based. More on the design: host or cells: HEK293 (HEK-Blue hTLR9). As to conditions: HEK293-Blue-hTLR9 cells, ODN2006, 20 hrs; read-out: HEK/hTLR9 IC50. A digest of the protocol:
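Antagonist format: cells in DMEM/10% FBS exposed to serially diluted compound (1% DMSO) plus ODN2006 stimulation for 20 h at 37°C. Supernatant SEAP measured with QUANTI-Blue substrate, 2 h at 37°C, absorbance 620–655 nm.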
Consider `Cc1cc(N2Cc3ccc(N4C[C@@H](F)[C@@H](N)C4)nc3[C@@H](C)C2)c2cnn(C)c2n1` [Example 69, (3S,4R)-4-fluoro-1-[(8S)-6-(1,6-dimethylpyrazolo[3,4-b]pyridin-4-yl)-8-methyl-7,8-dihydro-5H-1,6-naphthyridin-2-yl]pyrrolidin-3-amine], for which the IC50 was determined as 488 nM. On to `Cc1cc(N2Cc3ccc(N4CCOC5(CNC5)C4)nc3[C@@H](C)C2)c2cnn(C)c2n1` [Example 70, 8-[(8S)-6-(1,6-dimethylpyrazolo[3,4-b]pyridin-4-yl)-8-methyl-7,8-dihydro-5H-1,6-naphthyridin-2-yl]-5-oxa-2,8-diazaspiro[3.5]nonane], for which the IC50 was 300 nM.

As to `Cc1cc(N2Cc3ccc(N4CCNCC4)nc3[C@H](C)C2)c2cnn(C)c2n1` [Example 72, (8R)-6-(1,6-dimethylpyrazolo[3,4-b]pyridin-4-yl)-8-methyl-2-piperazin-1-yl-7,8-dihydro-5H-1,6-naphthyridine], the IC50 is 113 nM. As for `CO[C@H]1CN(c2cc3c(cn2)CN(c2cc(C)nc4c2cnn4C)C[C@@H]3C)CC[C@@H]1N` [Example 73, (3S,4S)-3-methoxy-1-[(5R)-7-(1,6-dimethylpyrazolo[3,4-b]pyridin-4-yl)-5-methyl-6,8-dihydro-5H-2,7-naphthyridin-3-yl]piperidin-4-amine], the figure is 115 nM; as for `Cc1cc(N2Cc3cnc(N4CCNCC4)cc3[C@@H](C)C2)c2cnn(C)c2n1` [Example 74, (4R)-2-(1,6-dimethylpyrazolo[3,4-b]pyridin-4-yl)-4-methyl-6-piperazin-1-yl-3,4-dihydro-1H-2,7-naphthyridine], 165 nM. As for `Cc1cc(N2Cc3cnc(N4CCNC5(CC5)C4)cc3[C@@H](C)C2)c2cnn(C)c2n1` [Example 75, (4R)-6-(4,7-diazaspiro[2.5]octan-7-yl)-2-(1,6-dimethylpyrazolo[3,4-b]pyridin-4-yl)-4-methyl-3,4-dihydro-1H-2,7-naphthyridine], the figure is 115 nM.

With `Cc1cc(N2Cc3cnc(O[C@@H]4C[C@H]5CNCCN5C4)cc3[C@@H](C)C2)c2cnn(C)c2n1` [Example 76, (4R)-2-(1,6-dimethylpyrazolo[3,4-b]pyridin-4-yl)-4-methyl-6-[[(7R,8aS)-1,2,3,4,6,7,8,8a-octahydropyrrolo[1,2-a]pyrazin-7-yl]oxy]-3,4-dihydro-1H-2,7-naphthyridine], the IC50 was 144 nM. `Cc1cc(N2Cc3cnc(OCCN4CCNCC4)cc3[C@@H](C)C2)c2cnn(C)c2n1` [Example 77, (4R)-2-(1,6-dimethylpyrazolo[3,4-b]pyridin-4-yl)-4-methyl-6-(2-piperazin-1-ylethoxy)-3,4-dihydro-1H-2,7-naphthyridine]: the IC50 amounted to 144 nM. As for `CO[C@@H]1CN(c2cc3c(cn2)CN(c2cc(C)nc4c2cnn4C)C[C@@H]3C)C[C@H]1N` [Example 78, (3R,4R)-4-methoxy-1-[(5R)-7-(1,6-dimethylpyrazolo[3,4-b]pyridin-4-yl)-5-methyl-6,8-dihydro-5H-2,7-naphthyridin-3-yl]pyrrolidin-3-amine], the figure is 335 nM; as for `Cc1cc(N2Cc3cnc(N4CC5(CNCCO5)C4)cc3[C@@H](C)C2)c2cnn(C)c2n1` [Example 79, 2-[(5R)-7-(1,6-dimethylpyrazolo[3,4-b]pyridin-4-yl)-5-methyl-6,8-dihydro-5H-2,7-naphthyridin-3-yl]-5-oxa-2,8-diazaspiro[3.5]nonane], 131 nM; as for `Cc1cc(N2Cc3cnc(N4CC[C@@H](N)[C@H](F)C4)cc3[C@@H](C)C2)c2cnn(C)c2n1` [Example 80, (3R,4R)-3-fluoro-1-[(5R)-7-(1,6-dimethylpyrazolo[3,4-b]pyridin-4-yl)-5-methyl-6,8-dihydro-5H-2,7-naphthyridin-3-yl]piperidin-4-amine], 73 nM. With `COC[C@H]1CN(c2cc3c(cn2)CN(c2cc(C)nc4c2cnn4C)C[C@@H]3C)CCN1` [Example 81, (4R)-2-(1,6-dimethylpyrazolo[3,4-b]pyridin-4-yl)-4-methyl-6-[(3R)-3-(methoxymethyl)piperazin-1-yl]-3,4-dihydro-1H-2,7-naphthyridine], the IC50 turned out to be 218 nM.
